Measurements: US7951815B2, “Substituted 1,4,8-triazaspiro [4,5]decan-2-one compounds” (Gruenenthal GmbH, priority 2004, dated 2011)

System: batrachotoxin (BTX) binding site of the sodium channel
Assay: Affinity to the batrachotoxin (BTX) binding site of the sodium channel
Details: Table III; rat cerebrocortex synaptosomes; test concentration not given

Structure (SMILES)	BTX inhibition
CSCCC1NC2(CCN(C(=O)c3cccc(Cl)c3F)CC2)N(Cc2cc(C)cc(C)c2)C1=O (centres unmarked) [Example 156, 8-(3-Chloro-2-fluorobenzoyl)-1-(3,5-dimethylbenzyl)-3-(2-methylsulfanylethyl)-1,4,8-triazaspiro[4,5]decan-2-one]	60
CC(C)C1NC2(CCN(C(=O)COc3cccc(Cl)c3)CC2)N(CCOc2ccccc2)C1=O (centres unmarked) [Example 165, 8-[2-(3-Chlorophenoxy)acetyl]-3-isopropyl-1-(2-phenoxyethyl)-1,4,8-triazaspiro[4,5]decan-2-one]	63
CSCCC1NC2(CCN(C(=O)c3cccc(C)c3C)CC2)N(C)C1=O (centres unmarked) [Example 166, 8-(2,3-Dimethylbenzoyl)-1-methyl-3-(2-methylsulfanylethyl)-1,4,8-triazaspiro[4,5]decan-2-one]	47
CSCCC1NC2(CCN(C(=O)c3c(-c4ccccc4Cl)noc3C)CC2)N(Cc2cc(C)cc(C)c2)C1=O (centres unmarked) [Example 169, 8-[3-(2-Chlorophenyl)-5-methylisoxazole-4-carbonyl]-1-(3,5-dimethylbenzyl)-3-(2-methylsulfanylethyl)-1,4,8-triazaspiro[4,5]decan-2-one]	51
CCOc1ccc(C(=O)N2CCC3(CC2)NC(CC(C)C)C(=O)N3Cc2ccccc2)cc1 (centres unmarked) [Example 179, 1-Benzyl-8-(4-ethoxybenzoyl)-3-isobutyl-1,4,8-triazaspiro[4,5]decan-2-one]	46
CSCCC1NC2(CCN(C(=O)c3c(-c4c(F)cccc4Cl)noc3C)CC2)N(Cc2cccc(C#N)c2)C1=O (centres unmarked) [Example 181, 3-[8-[3-(2-Chloro-6-fluorophenyl)-5-methylisoxazole-4-carbonyl]-3-(2-methylsulfanylethyl)-2-oxo-1,4,8-triazaspiro[4,5]dec-1-ylmethyl]benzonitrile]	43
CN1C(=O)C(Cc2ccccc2)NC12CCN(C(=O)COc1ccccc1)CC2 (centres unmarked) [Example 184, 3-Benzyl-1-methyl-8-(2-phenoxyacetyl)-1,4,8-triazaspiro[4,5]decan-2-one]	62
CCCCC(=O)N1CCC2(CC1)NC(CCSC)C(=O)N2Cc1cc(C)cc(C)c1 (centres unmarked) [Example 189, 1-(3,5-Dimethylbenzyl)-3-(2-methylsulfanylethyl)-8-pentanoyl-1,4,8-triazaspiro[4,5]decan-2-one]	40
Cc1oc(C(C)(C)C)cc1C(=O)N1CCC2(CC1)NC(C(C)C)C(=O)N2CCOc1ccccc1 (centres unmarked) [Example 196, 8-(5-tert-Butyl-2-methylfuran-3-carbonyl)-3-isopropyl-1-(2-phenoxyethyl)-1,4,8-triazaspiro[4,5]decan-2-one]	52
CC(C)CC1NC2(CCN(C(=O)CC3CCCC3)CC2)N(Cc2ccc(F)cc2)C1=O (centres unmarked) [Example 197, 8-(2-Cyclopentylacetyl)-1-(4-fluorobenzyl)-3-isobutyl-1,4,8-triazaspiro[4,5]decan-2-one]	41
COC(=O)c1ccc(CN2C(=O)C(C(C)C)NC23CCN(C(=O)CC(C)(C)C)CC3)cc1 (centres unmarked) [Example 198, Methyl 4-[8-(3,3-dimethylbutyryl)-3-isopropyl-2-oxo-1,4,8-triazaspiro[4,5]dec-1-ylmethyl]benzoate]	30
CCCCN1C(=O)C(C(C)C)NC12CCN(C(=O)CC1CCCC1)CC2 (centres unmarked) [Example 201, 1-Butyl-8-(2-cyclopentylacetyl)-3-isopropyl-1,4,8-triazaspiro[4,5]decan-2-one]	42
CSCCC1NC2(CCN(C(=O)C=Cc3cccc(C(F)(F)F)c3)CC2)N(C)C1=O (centres unmarked) [Example 208, 1-Methyl-3-(2-methylsulfanylethyl)-8-[3-(3-trifluoromethylphenyl)acryloyl]-1,4,8-triazaspiro[4,5]decan-2-one]	33
C#CCN1C(=O)C(CCSC)NC12CCN(C(=O)c1ccc(-c3ccccc3)cc1)CC2 (centres unmarked) [Example 213, 8-(Biphenyl-4-carbonyl)-3-(2-methylsulfanylethyl)-1-prop-2-ynyl-1,4,8-triazaspiro[4,5]decan-2-one]	43
